Source: a melting point compilation (Tetko et al.; mined from patent text by program, amines drawn as free bases though some values may be those of a salt)

melting point	Compound
55 to 57 °C	Cc1oc(-c2ccccc2)nc1COc1cccc(C#CC(C)n2oc(=O)[nH]c2=O)c1 (stereo unspecified)
80 to 82 °C	Cc1c(F)c(F)c(F)c(F)c1C(=O)O
117 to 120 °C	CNC(=O)c1c(I)c(C#N)c(I)c(C(=O)OCC(O)CO)c1I (stereo unspecified)
75 to 76 °C	Sc1nnnn1CCCc1ccccc1
86 to 90 °C	CCN(C)C(=O)[C@H]1O[C@@H](n2cnc3c(N)ncnc32)[C@H](O)[C@@H]1O
263 to 264 °C	Cc1c(-c2ccc(Cl)cc2)ccc2nc(C(=O)NC(Cc3ccc(OCc4ccccc4)cc3)C(=O)O)cn12 (stereo unspecified)
293 to 296 °C	O=C(Nc1cccc(F)c1)Nc1cnnc(Cl)c1
56 to 57 °C	CCC(O)(c1ccc(OCc2ccccc2)cc1)c1ccc(Cl)cc1Cl (stereo unspecified)
260 °C	CS(=O)(=O)CC(=O)N[C@H]1CC[C@H](CCN2CCN(c3nccc4c3CCO4)CC2)CC1
194 to 195 °C	CCOc1cc2nc(S(=O)c3ccccc3-c3ccccn3)[nH]c2cc1OCC (stereo unspecified)
113 to 115 °C	CC(C)Oc1cc(CCCOc2nn(Cc3ccccc3)cc2CC(=O)O)n(Cc2ccc(Cl)cc2OC(C)C)n1
> 270 °C	CS(=O)(=O)n1c2cc(O)c(O)cc2c2c(Br)cc(O)c(O)c21
170 to 171 °C	CC1(c2[nH]c3ccccc3c2C2=C(Cl)C(=O)C=C(Cl)C2=O)CC1
140 °C	CCn1c(=O)n(CCOCCOC)c(=O)c2c1ncn2Cc1ccccc1
104 to 105 °C	Cc1nc(CC2CCN(c3ccc(F)cc3)CC2)nc(C(=O)NCC(=O)O)c1O
153 to 154 °C	O=C(COc1ccccc1)N[C@H]1C(=O)N[C@H]1CO (relative stereo)
114 to 116 °C	COc1cn(C(C)(C)C(=O)N(C)C)nc1-c1ccccc1
80 to 81 °C	COc1cnc(C#N)c(C)c1
216 to 217 °C	OCC1OC(n2cnc3c(NN4CCCC4)nc(I)nc32)C(O)C1O (stereo unspecified)
154 °C	CCCc1nc2ccnn2cc1Cc1ccc(-c2ccccc2C#N)cc1
> 300 °C	CN1C(=O)C(=C(Nc2ccc(-c3cn(C)cn3)cc2)c2ccc(CN)cc2)c2ccccc21
59 °C	CCOC(=O)C(O)c1cc(Br)cn1CCOC(C)=O (stereo unspecified)
228 to 230 °C	C=CCOc1ccc(C(=O)C#Cc2c[nH]c3ccccc23)c(O)c1
223 to 224 °C	C=CCn1c(=O)[nH]c2ccccc2c1=N

melting point	Compound
115 to 116 °C	CN1NC(c2ccccc2Cl)=NN=C1c1ccccc1Cl
193 °C	CCOC(=O)c1cn(CCCO)c(=O)c2cc(Cl)ccc12
140 °C	O=C(O)CCC(=O)Oc1c(Cc2ccccc2)ccc2ccccc12
94 to 96 °C	O=C(O)C1CCN(CC2CN(CC3CCN(c4ccncc4)CC3)C(=O)O2)CC1 (stereo unspecified)
131 °C	CC1CN(Cc2ccccc2)Cc2cc(-c3ccccc3)n(Cc3ccccc3)c21 (stereo unspecified)
220 to 222 °C	Cc1ccc(NC(=N)c2ccccc2)cc1NC(=O)/C=C/c1ccccc1C(F)(F)F
148 to 149 °C	C=CCNC(=O)N(O)Cc1c(C)n(C(=O)c2ccc(Cl)cc2)c2ccc(OC)cc12
92 to 93 °C	COc1cccc(CC(=O)O)c1OCCCc1cn(-c2ccc(C(F)(F)F)nn2)nc1C(C)C
145 to 146 °C	COc1ccc(-n2nc3c(cc2=O)CCSc2sc(C)cc2-3)cc1
196 °C	CCCc1nc(C)n2c(=O)[nH]nc2c1Cc1ccc(-c2ccccc2C#N)cc1
131 to 132 °C	COc1ccc(NC(=O)CCCCC(=O)Cc2ccccc2)cc1
160 to 162 °C	COc1ccc(Cl)cc1-c1[nH]c2cccc3c2c1CCNC3=O
173 °C	CCC(c1ccc2[nH]c(C(F)(F)F)nc2c1)n1ccnc1 (stereo unspecified)
182 to 184 °C	N#Cc1c(N2CCCCC2)cc(-c2ccc3ccccc3c2)c2c1C(=O)c1ccccc1-2
143 °C	c1ccc(OCCN2CCN(Cc3c[nH]c4ncccc34)CC2)cc1
30 to 31.5 °C	C=C(C)COc1ccc(CC(=O)OC)cc1[N+](=O)[O-]
155 to 156 °C	S=C(NCCCN1CCN(Cc2ccc(Cl)cc2)CC1)Nc1ccccc1
211 °C	COc1cc(N)ccc1S(=O)(=O)n1c(=O)n(C2CCCCC2)c2cc(Cl)ccc21
90 to 91 °C	CCOC(=O)[C@@]1(F)[C@@H]2CC=C(C(=O)OCc3ccccc3)[C@@H]21
81.5 to 82 °C	CC(C)=CC(O)C(Br)(Br)Br (stereo unspecified)
167 to 168 °C	CN1CC(c2cc(CCc3ccc(F)cc3)ccn2)=C(O)C1=O
130 °C	CCCN(CCC)C(=O)CN(C(=O)CN1C(=O)c2ccccc2C1=O)c1ccccc1
112 to 114 °C	COc1ccnc(CSc2nc3c(OC(F)F)c(OC)c(OC)cc3[nH]2)c1
124 to 125 °C	COc1ccc(CN2C(=O)[C@H](CO)[C@H]2S(=O)(=O)C(C)(C)C)c(OC)c1

melting point	Compound
> 260 °C	NC(=O)c1cc2ncccc2n1-c1ccc([N+](=O)[O-])cc1
169 to 170 °C	COc1ccc2c(N)c3ccccc3nc2c1
85 to 86 °C	CCC(=O)C(CCCCCl)NC(=O)c1ccc(C)cc1 (stereo unspecified)
> 340 °C	CCOC(=O)c1c[nH]c2nc(Nc3ccc(C)c(Cl)c3)nn2c1=O
209 to 211 °C	C#CCn1nnc2cc3c(=O)n(C(C)Cn4ncnn4)nnc3cc2c1=O (stereo unspecified)
257 to 259 °C	COC1CCc2c(c(C)[nH]c(=O)c2C#N)C1 (stereo unspecified)
116 °C	COc1cccc(-c2cc(=O)c3cccc(C(=O)Nc4ccc(CCCCN5CCc6cc(OC)c(OC)cc6C5)cc4)c3[nH]2)c1
208 to 212 °C	CC(Oc1ccc(C(=O)c2ccc(O)cc2)c(Cl)c1Cl)C(=O)O (stereo unspecified)
169 to 170 °C	CCCCC#CCCOc1ccc(/C=C/C(=O)Nc2ccccc2C(=O)O)cc1OC
131 to 133 °C	CN(C)C=C1CN=Cc2ccccc2C1=O
104 to 107 °C	CCOC(=O)[C@H](Cc1ccc(-c2c(OC)cc(COS(C)(=O)=O)cc2OC)cc1)NC(=O)c1c(F)cccc1Cl
300 to 304 °C	Cc1nc(N)sc1-c1ccnc(Nc2ccc(N3CCOCC3)cc2)n1
217 to 220 °C	COC(=O)c1cn(-c2ccc(F)cc2)c(-c2ccc(N(C)C)c(C)c2)cc1=O
195 to 196 °C	COCCOC(=O)Nc1cc(N2CC=CCC2)nc2nc(=O)on12
206 to 208 °C	N#Cc1ccc(C2CC(=O)c3ccccc3N2)cc1 (stereo unspecified)
91 °C	ON=C(Cc1ccc(Cl)cc1)c1ccc(Cl)cc1Cl
138 °C	CCc1nccn1CCc1ccc(Nc2ncc(C#N)c(-c3ccc(C(C)(C)N)cc3)n2)cc1
132 to 135 °C	CN(C(=O)N1CC(C)(c2ccccc2)C(c2ccc(Cl)cc2)=N1)c1ccc(Cl)cc1 (stereo unspecified)
228 °C	Oc1ccc(N2CCN(CCC3C=Cc4ccccc43)CC2)cc1 (stereo unspecified)
106 to 108 °C	Cc1ncnn1-c1ccc(N)cc1F
235 °C	CS(=O)(=O)Nc1cc(N)c(F)cc1C#N
238 to 240 °C	CCC(=O)NN=C(c1ccc(Cl)cc1)c1ccc(NS(=O)(=O)c2ccccc2)cc1
186 to 191 °C	C=CCn1c(NCC(F)(F)F)nc(N2CCc3ccccc3CC2)c(C#N)c1=O
261 to 263 °C	CCc1cc(-n2ccc(=O)cc2)c(S(C)(=O)=O)cc1C(=O)N=C(N)N

melting point	Compound
171 to 173 °C	O=C(O)Cn1cccc(NC(=O)OCc2ccccc2)c1=O
164 to 168 °C	O=C(CCCOc1cccc(CNC(=O)c2nc3ccccc3c(=O)[nH]2)c1)NO
108 °C	COC(=O)c1ccn2c1C(C(=O)OC)CCC2 (stereo unspecified)
138 °C	CC(C)N(C1CCCCC1)S(=O)(=O)N[C@@H](Cc1ccc(Oc2nccc3cnccc23)cc1)C(=O)O
131 to 134 °C	C=CC(=O)N1CCc2cc(OC)c(OC)cc2C12CCC(C(=O)OCC)(C(=O)OCC)CC2
280 °C	c1ccc(-c2cc(-c3ccc(-c4nccc5ccccc45)cc3)cc(-c3nc(-c4ccccc4)nc(-c4ccccc4)n3)c2)cc1
125 to 127 °C	O=C(Nc1nccs1)C(CC1CCCC1)c1ccc(F)c(C(F)(F)F)c1 (stereo unspecified)
174 to 175 °C	CCOC(=O)C1=C(C)NC(=NC#N)N(C(=O)OCC)C1c1cccc([N+](=O)[O-])c1 (stereo unspecified)
137 °C	CC(C)c1oc(-c2ccccc2)c(-c2ccc(F)c(Oc3ccccc3)c2)c1C=O
163 to 165 °C	CNC(=O)c1cn(C)nc1[N+](=O)[O-]
111 to 113 °C	CCCOc1ccc(-c2csc(-c3ccccc3Cl)c2CC(=O)N=C(N)N)cc1
106 °C	CCCNS(=O)(=O)c1cc(C(=O)CCC(=O)O)ccc1Cl
146 to 148 °C	CCOc1c(C(=O)NCC(O)CN(CC)CC)n(-c2ccccc2)c2ccccc12 (stereo unspecified)
149 °C	Cc1cc(C(C#N)=CN(C)C)cc(C)n1
145 to 148 °C	CNC(=C[N+](=O)[O-])NCCCCc1nc[nH]c1Br
73.5 to 75 °C	CCCCCCCCCCCCCCC(CCCCCCCCCCCCCC)C(=O)O
49 to 50 °C	CC(C)N(CCCN1C(=O)C(=O)c2ccccc21)C(C)C
55 to 58 °C	NCC(O)COc1cccc(Cl)c1 (stereo unspecified)
120 to 121 °C	CCCc1nn(-c2ccc(C(F)(F)F)cn2)cc1CO
228 to 230 °C	Cn1cc(C(=O)NCc2ccc(Cl)cc2)c(=O)c2cccc(C#CCO)c21
208 to 210 °C	COc1ccc(Nc2cccc3c2C(=O)N(C2CCC(=O)NC2=O)C3=O)c(OC)c1 (stereo unspecified)
162 °C	CC(=O)Nc1nc2c(s1)-c1nc(-c3cc(C#CC4CCNCC4)ccc3Cl)ncc1CC2

Compound	melting point
CCN(CC)CC#CCCC(=O)C(O)(c1ccccc1)C1CCCC1 (stereo unspecified)	128 to 129 °C
CN1CCCC2C(=NO)CCCC21 (stereo unspecified)	169 to 171 °C
C#Cc1ccc2c(c1)C(c1ccccc1)=NC(C)c1c(C(=O)OCC)ncn1-2 (stereo unspecified)	197 to 199 °C
Cc1cc(C2=NOC(c3cc(Cl)cc(Cl)c3)(C(F)(F)F)C2)ccc1C(=O)N(C)C1CCCS1 (stereo unspecified)	146 to 151 °C
C=CC1CC2=CC(=O)CCC2(C)C2CCC3(C)C(CCC3(C)O)C12 (stereo unspecified)	116 to 117 °C
c1cncc(NC2CCNCC2)c1	127 to 129 °C
ClCCN1CCC(=C(c2ccccc2)c2ccccc2)CC1	85 to 86 °C
